Key:
[1] = test system: patients with Spinocerebellar Ataxia (SCA); assay: BHV4157-201 open-label extension phase, interim analysis: modified SARA (axial items); assay type: in vivo, human
From the text: This example describes a study entitled: Interim Extension Phase Analyses of Study BHV4157-201: Phase IIb/III, Randomized, Double-blind, Placebo-controlled Trial of Troriluzole (BHV-4157) in Adult Subjects with Spinocerebellar Ataxia followed by 96-Week Open-Label Extension Phase.
To date, all subjects have had the chance to complete the Week 24 visit from the long term, open-label extension phase of the trial.
BHV4157-201 is an on-going Phase IIb/III, multicenter, randomized, double-blind, 2-arm placebo-controlled parallel-group study designed to assess safety, tolerability, and efficacy in a population of patients with Spinocerebellar Ataxia (SCA). The study is comprised of two periods: an 8-week randomization period, followed by a 96-week open-label extension period. Regarding key entry criteria, subjects were male and female outpatients between the ages of 18-75 years, inclusive, with a known or suspected diagnosis of the following hereditary ataxias: SCA1, SCA2, SCA3, SCA6, SCA7, SCA8 and SCA10. All subjects completed genetic testing to confirm the diagnosis of hereditary ataxias. The primary objective of the study is to compare the efficacy of troriluzole versus placebo on ataxia symptoms in patients with SCA as measured by the total score on the Scale for the Assessment and Rating of Ataxia (SARA). Secondary objectives include assessments of functional disability, non-ataxia symptoms associated with SCA, global functioning, performance-based measures of ataxia, and neuropsychiatric and cognitive functioning.
During the 8-week Randomization Phase of the study, which has been completed, 141 subjects were randomized, in a 1:1 ratio, to receive either BHV-4157 (140 mg daily) or Placebo. Subjects completing the Randomization Phase were offered approximately 96 weeks of open-label treatment, provided the investigator believed open-label treatment offered an acceptable risk-benefit profile.

[2] = test system: subjects with spinocerebellar ataxia (SCA); assay: Further analysis of Example 1 study: Modified SARA, 8 week change from baseline; assay type: in vivo, human; conditions: for change in SARA score (difference BHV-4157 vs placebo): enriched genotypes
From the text: This example describes a further analysis of the study of Example 1.

SMILES: CN(CC(=O)Nc1nc2ccc(OC(F)(F)F)cc2s1)C(=O)CNC(=O)CN [BHV-4157, troriluzole]
- Mod SARA change (SD) from Randomization Baseline ([1]; All Patients, 8 weeks): −0.4 (1.50)
- Mod SARA change (SD) from Randomization Baseline ([1]; All Patients, 36 weeks): −0.1 (1.30)
- Mod SARA change (SD) from Randomization Baseline ([1]; Female Subgroup, 8 weeks): −0.3 (1.48)
- Mod SARA change (SD) from Randomization Baseline ([1]; Female Subgroup, 24 weeks): −0.4 (1.32)
- Mod SARA change (SD) from Randomization Baseline ([1]; Female Subgroup, 36 weeks): −0.1 (1.41)
- Mod SARA change (SD) from Randomization Baseline ([1]; Female Subgroup, 48 weeks): −0.1 (1.50)
- Mod SARA change (SD) from Randomization Baseline ([1]; Low Weight Subgroup, 8 weeks): −0.6 (1.56)
- Mod SARA change (SD) from Randomization Baseline ([1]; Low Weight Subgroup, 24 weeks): −0.5 (1.44)
- Mod SARA change (SD) from Randomization Baseline ([1]; Low Weight Subgroup, 36 weeks): −0.3 (1.34)
- Mod SARA change (SD) from Randomization Baseline ([1]; Low Weight Subgroup, 48 weeks): −0.2 (1.41)
- Mod SARA change (SD) from Randomization Baseline ([1]; Non-SCA1 & SCA2, 8 weeks): −0.3 (1.58)
- Mod SARA change (SD) from Randomization Baseline ([1]; Non-SCA1 & SCA2, 24 weeks): −0.3 (1.24)
- Mod SARA change (SD) from Randomization Baseline ([1]; Non-SCA1 & SCA2, 36 weeks): −0.1 (1.44)
- Mod SARA change (SD) from Randomization Baseline ([1]; Non-SCA1 & SCA2, 48 weeks): −0.2 (1.44)
- Mod SARA change (SD) from Randomization Baseline ([1]; SCA1 & SCA2, 8 weeks): −0.5 (1.47)
- Mod SARA change (SD) from Randomization Baseline ([1]; SCA1 & SCA2, 24 weeks): −0.4 (1.45)
- Mod SARA change (SD) from Randomization Baseline ([1]; SCA1 & SCA2, 36 weeks): −0.1 (1.20)
- Mod SARA change (SD) from Randomization Baseline ([1]; SCA1 & SCA2, 48 weeks): 0.1 (1.44)
- improvement in the axial SARA score ([1]; at 6 months): −0.1 point
- Modified SARA, week 8 StdChg ([2]; All SCA, n = 63, May-18): 0.453
- Modified SARA, week 8 Δ Mean ([2]; All SCA, n = 63, May-18): −0.429
- Modified SARA, week 8 StdChg ([2]; SCA1 and SCA2, first Stable column, n = 31): 0.405
- Modified SARA, week 8 Δ Mean ([2]; SCA1 and SCA2, first column headed Stable (−1 < diff < 1), n = 31, Stable 2 in Table 16): −0.387
- Modified SARA, week 8 StdChg ([2]; SCA1 and SCA2, n = 33): 0.399
- Modified SARA, week 8 Δ Mean ([2]; SCA1 and SCA2, n = 33, May-18): −0.424
- Modified SARA, week 8 StdChg ([2]; SCA1 and SCA2, second Stable column, n = 14): 0.313
- Modified SARA, week 8 Δ Mean ([2]; SCA1 and SCA2, second column headed Stable (−1 < diff < 1), n = 14, Stable 1 in Table 16): −0.286
- change in SARA score (difference BHV-4157 vs placebo) ([2]; stable 2 group, 8 weeks): 0.24
- change in SARA score (difference BHV-4157 vs placebo) ([2]; stable group 1, 8 weeks): 0.20
